Consider six molecules from publication PMC7692923, “Co-Ingestion of Black Carrot and Strawberry. Effects on Anthocyanin Stability, Bioaccessibility and Uptake” (Foods, 2020).

Holding throughout (type): in vitro ADME
Data set [1] can be described thus: In vitro bioaccessibility after digestion of matrix-containing powder. The note with it: for Post-digestion concentration (bioaccessible fraction): mean ± SD n = 3. On the procedure:
(§1) A standardized in vitro digestion procedure was applied to each sample [20]. For the gastric phase, 7.5 mL of a simulated gastric fluid (in mM: KCl 6.9, KH2PO4 0.9, NaHCO3 25, NaCl 47.2, MgCl2(H2O) 0.1, (NH4)2CO3 0.5, pH 3.0), 5 µL of CaCl2 (0.3 M) and 1.6 mL of porcine pepsin solution (25,000 U/mL) were added and the pH of was adjusted to 3.0 using HCl (1 M). Demineralized water was added to the gastric chyme to complete a volume of 20 mL. Nitrogen was flushed into the headspace of the tubes before incubation at 37 °C during 2 h in the dark, while end-over-end rotation (40 rpm). For the intestinal phase simulation, the gastric chyme was mixed with 11 mL of simulated intestinal fluid (in mM: KCl 6.8, KH2PO4 0.8, NaHCO3 85, NaCl 38.4, MgCl2(H2O) 0.33, pH 7.0), 40 µL of CaCl2, 5 mL of pancreatin solution (800 U/mL based on trypsin activity) and 2.5 mL of bile solution (160 mM). NaOH (1 M) was used to adjust the pH to 7 and water to complete the volume until 40 mL. Prior to incubation in the dark, at 37 °C, 2 h, end-over-end rotation, the headspace of the tubes was flushed with nitrogen.
After digestion of the powdered samples, an ultracentrifugation (Beckman L7 ultracentrifuge, Palo, Alto, CA, USA) at 165,000× g, 4 °C, 65 min, was performed to separate soluble and non-soluble fractions. The supernatant, containing the bioaccessible anthocyanins, was isolated. For the determination of anthocyanins, the digest was acidified with formic acid (1%) to stabilize the compounds, prior to the quantification by high performance liquid chromatography (HPLC). Results are shown as the ratio of the bioaccessible compound concentration to the initial compound concentration in the sample, as indicated in Equation (3). (3) Bioaccessibility (%)=(anthocyanin (mg.100 g^−1) after digestion)/(anthocyanin (mg.100 g^−1) before digestion)×100

Data set [2] is described as follows: Intestinal stability of anthocyanins in extracts, standardized in vitro digestion (simulated intestinal fluid, pancreatin, bile, pH 7). The note with it: for Intestinal stability: % of undigested; for Post-Intestinal concentration: mean ± SD n = 3. The protocol:
as §1
(§2) Aliquots from gastric and intestinal digests were sampled along black carrot and strawberry extracts digestion, stabilized by acidification with formic acid and stored at −20 °C until further analysis. Stability (%) was calculated as indicated by Equations (1) and (2). (1) Gastric stability (%)=(anthocyanin (mg·100 mL^−1) after gastric digestion)/(anthocyanin (mg·100 mL^−1) before digestion)×100 (2) Intestinal stability (%)=(anthocyanin (mg·100 mL^−1) after intestinal digestion)/(anthocyanin (mg·100 mL^−1) before digestion)×100

The nature of data set [3]: Gastric stability of anthocyanins in extracts, standardized in vitro digestion (simulated gastric fluid, pepsin, pH 3.0). The note with it: for Gastric stability: % of undigested. The protocol:
as §1, §2

[4] abbreviates: co-digestion of black carrot and strawberry powder.
Setting [5] is: single digestion, matrix-containing powder.
The mark [6] stands for this setting: co-digestion of black carrot and strawberry extracts.
[7] abbreviates: single digestion, liquid extract.
The mark [8] stands for this setting: single digestion, liquid extract, pH 7, 2 h 37 °C.
The mark [9] stands for this setting: co-digestion of black carrot and strawberry extracts, mean ± SD n = 3.
[10] abbreviates: single digestion, liquid extract, 2 h 37 °C pH 3.0, mean ± SD n = 3.

As to `O=C(/C=C/c1ccc(O)cc1)OC[C@H]1O[C@@H](OC[C@H]2O[C@@H](Oc3cc4c(O)cc(O)cc4[o+]c3-c3ccc(O)c(O)c3)[C@H](O[C@@H]3OC[C@@H](O)[C@H](O)[C@H]3O)[C@@H](O)[C@H]2O)[C@H](O)[C@@H](O)[C@@H]1O` [Cyanidin-3-xylosyl-coumaroyl-glucosyl-galactoside], the Bioaccessibility in data set [1] (setting [4]) was determined as 52%; in data set [1] (setting [5]), 28%. Besides, the “Post-digestion concentration (bioaccessible fraction)” value is on record as 105.2 ± 0.9 mg/100 g of sample (dry weight) in data set [1] (setting [4]) and 55.8 ± 5.2 mg/100 g of sample (dry weight) in data set [1] (setting [5]). The Intestinal stability in data set [2] (setting [6]) is on record as 42%; in data set [2] (setting [7]), 48%. The Post-Intestinal concentration is on record as 0.75 ± 0.04 mg/100 mL of extract in data set [2] (setting [6]) and 0.85 ± 0.07 mg/100 mL of extract in data set [2] (setting [8]). In addition, the Gastric stability in data set [3] (setting [6]) is listed as 66%; in data set [3] (setting [7]), 65%. Further, the Post-Gastric concentration in data set [3] (setting [9]) is recorded as 1.16 ± 0.02 mg/100 mL of extract; in data set [3] (setting [10]), 1.14 ± 0.01 mg/100 mL of extract.

For the molecule `COc1cc(/C=C/C(=O)OC[C@H]2O[C@@H](OC[C@H]3O[C@@H](Oc4cc5c(O)cc(O)cc5[o+]c4-c4ccc(O)c(O)c4)[C@H](O[C@@H]4OC[C@@H](O)[C@H](O)[C@H]4O)[C@@H](O)[C@H]3O)[C@H](O)[C@@H](O)[C@@H]2O)ccc1O` [Cyanidin-3-xylosyl-feruloyl-glucosyl-galactoside], the Bioaccessibility in data set [1] (setting [4]) worked out at 48%; in data set [1] (setting [5]) it was 34%. In addition, the “Post-digestion concentration (bioaccessible fraction)” value in data set [1] (setting [4]) is 528.3 ± 15.0 mg/100 g of sample (dry weight); in data set [1] (setting [5]), 378.4 ± 26.1 mg/100 g of sample (dry weight). For the same molecule, the Intestinal stability in data set [2] (setting [6]) is given as 60%; in data set [2] (setting [7]), 58%. In addition, the Post-Intestinal concentration is on record as 5.81 ± 0.03 mg/100 mL of extract in data set [2] (setting [6]) and 5.54 ± 0.05 mg/100 mL of extract in data set [2] (setting [8]). The Gastric stability in data set [3] (setting [6]) and in data set [3] (setting [7]) was 86% throughout. For the same molecule, the Post-Gastric concentration in data set [3] (setting [9]) is on record as 8.28 ± 0.03 mg/100 mL of extract; in data set [3] (setting [10]), 8.23 ± 0.04 mg/100 mL of extract.

`OC[C@H]1O[C@@H](Oc2cc3c(O)cc(O)cc3[o+]c2-c2ccc(O)c(O)c2)[C@H](O[C@@H]2OC[C@@H](O)[C@H](O)[C@H]2O)[C@@H](O)[C@H]1O` [Cyanidin-3-xylosyl-galactoside]: the values for the Bioaccessibility in data set [1] (setting [4]) and in data set [1] (setting [5]) were 84% and 33%, respectively. The entries for the “Post-digestion concentration (bioaccessible fraction)” value in data set [1] (setting [4]) and in data set [1] (setting [5]) were 113.8 ± 0.2 mg/100 g of sample (dry weight) and 44.1 ± 4.4 mg/100 g of sample (dry weight), respectively. Besides, the Intestinal stability is on record as 92% in data set [2] (setting [6]) and 79% in data set [2] (setting [7]). Besides, the values for the Post-Intestinal concentration in data set [2] (setting [6]) and in data set [2] (setting [8]) were 1.09 ± 0.01 mg/100 mL of extract and 0.94 ± 0.01 mg/100 mL of extract, respectively. The Gastric stability in data set [3] (setting [6]) is 83%; in data set [3] (setting [7]) it was 81%. Besides, the Post-Gastric concentration in data set [3] (setting [9]) was 0.98 ± 0.02 mg/100 mL of extract; in data set [3] (setting [10]), 0.95 ± 0.00 mg/100 mL of extract.

On to `OC[C@H]1O[C@@H](OC[C@H]2O[C@@H](Oc3cc4c(O)cc(O)cc4[o+]c3-c3ccc(O)c(O)c3)[C@H](O[C@@H]3OC[C@@H](O)[C@H](O)[C@H]3O)[C@@H](O)[C@H]2O)[C@H](O)[C@@H](O)[C@@H]1O` [Cyanidin-3-xylosyl-glucosyl-galactoside], for which the values for the Bioaccessibility in data set [1] (setting [4]) and in data set [1] (setting [5]) were 105% and 62%, respectively. For the same molecule, the results for the “Post-digestion concentration (bioaccessible fraction)” value in data set [1] (setting [4]) and in data set [1] (setting [5]) were 50.5 ± 9.2 mg/100 g of sample (dry weight) and 29.7 ± 3.7 mg/100 g of sample (dry weight), respectively. In addition, the Intestinal stability in data set [2] (setting [6]) is recorded as 99%; in data set [2] (setting [7]), 86%. Further, the values for the Post-Intestinal concentration in data set [2] (setting [6]) and in data set [2] (setting [8]) were 0.42 ± 0.00 mg/100 mL of extract and 0.36 ± 0.00 mg/100 mL of extract, respectively. In addition, the Gastric stability in data set [3] (setting [6]) is listed as 56%; in data set [3] (setting [7]), 59%. The Post-Gastric concentration in data set [3] (setting [9]) was 0.24 ± 0.02 mg/100 mL of extract; in data set [3] (setting [10]), 0.25 ± 0.01 mg/100 mL of extract.

For the molecule `OC[C@H]1O[C@@H](Oc2cc3c(O)cc(O)cc3[o+]c2-c2ccc(O)cc2)[C@H](O)[C@@H](O)[C@@H]1O` [Pelargonidin-3-glucoside], the Bioaccessibility in data set [1] (setting [4]) came out at 28%; in data set [1] (setting [5]), 36%. Besides, the “Post-digestion concentration (bioaccessible fraction)” value was 272.5 ± 19.7 mg/100 g of sample (dry weight) in data set [1] (setting [4]) and 256.6 ± 8.3 mg/100 g of sample (dry weight) in data set [1] (setting [5]). For the same molecule, the results for the Intestinal stability in data set [2] (setting [6]) and in data set [2] (setting [7]) were 35% and 49%, respectively. The figures for the Post-Intestinal concentration in data set [2] (setting [6]) and in data set [2] (setting [8]) were 5.78 ± 0.13 mg/100 mL of extract and 6.01 ± 0.02 mg/100 mL of extract, respectively. Besides, the Gastric stability is given as 76% in data set [3] (setting [6]) and 90% in data set [3] (setting [7]). For the same molecule, the Post-Gastric concentration was 12.63 ± 0.46 mg/100 mL of extract in data set [3] (setting [9]) and 11.13 ± 0.09 mg/100 mL of extract in data set [3] (setting [10]).

Regarding `O=C(O)CC(=O)OC[C@H]1O[C@@H](Oc2cc3c(O)cc(O)cc3[o+]c2-c2ccc(O)cc2)[C@H](O)[C@@H](O)[C@@H]1O` [Pelargonidin-3-malonyl-glucoside], the Bioaccessibility in data set [1] (setting [4]) turned out to be 36%; in data set [1] (setting [5]) it was 34%. Besides, the “Post-digestion concentration (bioaccessible fraction)” value in data set [1] (setting [4]) was 81.3 ± 6.6 mg/100 g of sample (dry weight); in data set [1] (setting [5]), 76.2 ± 1.8 mg/100 g of sample (dry weight). Also, the Intestinal stability is reported as 49% in data set [2] (setting [6]) and 46% in data set [2] (setting [7]). Also, the Post-Intestinal concentration is listed as 1.91 ± 0.02 mg/100 mL of extract in data set [2] (setting [6]) and 1.77 ± 0.01 mg/100 mL of extract in data set [2] (setting [8]). Also, the Gastric stability in data set [3] (setting [6]) is reported as 92%; in data set [3] (setting [7]) it was 87%. Moreover, the Post-Gastric concentration in data set [3] (setting [9]) was 3.57 ± 0.07 mg/100 mL of extract; in data set [3] (setting [10]) it was 3.37 ± 0.01 mg/100 mL of extract.
